Measurements from ChEMBL document CHEMBL2151026, “Comparative study on antioxidant capacity of flavonoids and their inhibitory effects on oleic acid-induced hepatic steatosis in vitro” (Eur J Med Chem, 2011).
Active and inactive are the calls of the source. No cut-off for these calls is given here.

Experiments:
[1] = Reducing activity by cyclic voltammetry
[2] = test system: HepG2; test: Inhibition of oleic acid-induced triglyceride over-accumulation in human HepG2 cells incubated for 24 hrs relative to untreated control; type: functional; conditions: for IC30: Homo sapiens, HepG2, 24 h
[3] = Reducing activity assessed as chlorogenic acid equivalent per mmol standard at 37 degC for 30 mins by Folin-Ciocalteu reagent assay
[4] = test system: HepG2; test: Antioxidant activity in human HepG2 cells assessed as reduction of oleic acid-induced ROS generation incubated for 24 hrs by DHCF-DA based fluorimetric assay relative to untreated control; type: functional; conditions: for IC30: Homo sapiens, HepG2, 24 h
[5] = test system: HepG2; test: Cytotoxicity against human HepG2 cells incubated for 24 hrs by MTT assay; type: cell-based; conditions: hepg2, 24 h
[6] = test system: HepG2; test: Proxidant activity in human HepG2 cells assessed as increase in oleic acid-induced ROS generation at >10 uM incubated for 24 hrs by […] based fluorimetric assay relative to untreated control; type: cell-based; conditions: hepg2, 24 h
[7] = test system: HepG2; test: Proxidant activity in human HepG2 cells assessed as increase in oleic acid-induced ROS generation at >25 uM incubated for 24 hrs by […] based fluorimetric assay relative to untreated control; type: cell-based; conditions: hepg2, 24 h

O=C1c2c(O)cc(O)cc2O[C@H](c2ccc(O)c(O)c2)[C@H]1O [(+)-TAXIFOLIN]
Activity [1]: 0.248 V | Imax [2]: 43.4% | IC30 [2]: 63.6 µM | Activity [3]: 0.99 mM | Imax [4]: 40.1% | IC30 [4]: 40 µM | Activity [5]: > 200 µM

Oc1cc(O)c2c(c1)O[C@H](c1ccc(O)c(O)c1)[C@H](O)C2 [(-)-EPICATECHIN]
Imax [2]: 46.6% | IC30 [2]: 166 µM | Activity [3]: 1.05 mM | Imax [4]: 38.1% | IC30 [4]: 103 µM | Activity [5]: > 250 µM

O=c1cc(-c2ccc(O)cc2)oc2cc(O)cc(O)c12 [APIGENIN]
Activity [1]: 0.623 V | Imax [2]: inactive | Activity [3]: 0.39 mM | Activity [6]: Toxic | Imax [4]: inactive | Activity [7]: Toxic | Activity [5]: > 150 µM

O=c1cc(-c2ccccc2)oc2cc(O)cc(O)c12 [CHRYSIN]
Activity [1]: 0.81 V | Imax [2]: inactive | Activity [3]: 0.16 mM | Imax [4]: inactive | Activity [5]: > 20 µM

Oc1cc(O)c2c(c1)O[C@H](c1ccc(O)c(O)c1)[C@@H](O)C2 [CIANIDANOL]
Activity [1]: 0.285 V | Imax [2]: 28.7% | IC30 [2]: > 250 µM | Activity [3]: 0.77 mM | Imax [4]: 29.8% | IC30 [4]: > 250 µM | Activity [5]: > 250 µM

O=c1c(-c2ccc(O)cc2)coc2cc(O)ccc12 [DAIDZEIN]
Activity [1]: 0.596 V | Imax [2]: 34.5% | IC30 [2]: 140 µM | Activity [3]: 0.4 mM | Imax [4]: 37.5% | inhibition [4]: Dose-dependent effect | IC30 [4]: 135 µM | Activity [5]: > 200 µM

O=C(O[C@@H]1Cc2c(O)cc(O)cc2O[C@@H]1c1cc(O)c(O)c(O)c1)c1cc(O)c(O)c(O)c1 [EPIGALOCATECHIN GALLATE]
Activity [1]: 0.125 V | Imax [2]: 54.2% | IC30 [2]: 6.3 µM | Activity [3]: 2.2 mM | Imax [4]: 40.2% | inhibition [4]: Dose-dependent effect | IC30 [4]: 26.2 µM | Activity [5]: > 200 µM

O=c1c(O)c(-c2ccccc2)oc2cc(O)cc(O)c12 [GALANGIN]
Activity [1]: 0.354 V | Imax [2]: inactive | Activity [3]: 0.75 mM | Imax [4]: 12.4% | IC30 [4]: > 50 µM | Activity [5]: > 50 µM

O=c1c(-c2ccc(O)cc2)coc2cc(O)cc(O)c12 [GENISTEIN]
Activity [1]: 0.614 V | Imax [2]: inactive | Activity [3]: 0.33 mM | Imax [4]: 17.3% | IC30 [4]: > 50 µM | Activity [5]: > 50 µM

COc1ccc([C@@H]2CC(=O)c3c(O)cc(O)cc3O2)cc1O [HESPERETIN]
Activity [1]: 0.556 V | Imax [2]: inactive | Activity [3]: 0.53 mM | Imax [4]: 23% | IC30 [4]: > 150 µM | Activity [5]: > 100 µM

COc1cc(-c2oc3cc(O)cc(O)c3c(=O)c2O)ccc1O [ISORHAMNETIN]
Activity [1]: 0.115 V | Imax [2]: 41.8% | IC30 [2]: 90.5 µM | Activity [3]: 1.04 mM | Imax [4]: 43.8% | inhibition [4]: Dose-dependent effect | IC30 [4]: 69.3 µM | Activity [5]: > 200 µM

O=c1c(O)c(-c2ccc(O)cc2)oc2cc(O)cc(O)c12 [KAEMPFEROL]
Activity [1]: 0.189 V | Imax [2]: 58.6% | IC30 [2]: 121 µM | Activity [3]: 1.08 mM | Imax [4]: 42.2% | inhibition [4]: Dose-dependent effect | IC30 [4]: 68.7 µM | Activity [5]: > 200 µM

O=c1cc(-c2ccc(O)c(O)c2)oc2cc(O)cc(O)c12 [LUTEOLIN]
Activity [1]: 0.269 V | Imax [2]: 24.2% | IC30 [2]: > 20 µM | Activity [3]: 0.91 mM | Imax [4]: 24% | IC30 [4]: > 20 µM | Activity [5]: > 20 µM

O=c1c(O)c(-c2cc(O)c(O)c(O)c2)oc2cc(O)cc(O)c12 [MYRICETIN]
Activity [1]: 0.115 V | Imax [2]: 24.8% | IC30 [2]: > 150 µM | Activity [3]: 1.02 mM | Imax [4]: 34.5% | inhibition [4]: Dose-dependent effect | IC30 [4]: 123 µM | Activity [5]: > 200 µM

O=C1C[C@@H](c2ccc(O)cc2)Oc2cc(O)cc(O)c21 [NARINGENIN]
Activity [1]: 0.71 V | Imax [2]: inactive | Activity [3]: 0.55 mM | Imax [4]: inactive | Activity [5]: > 200 µM

O=c1c(O)c(-c2ccc(O)c(O)c2)oc2cc(O)cc(O)c12 [QUERCETIN]
Activity [1]: 0.218 V | Imax [2]: 46.1% | IC30 [2]: 14.9 µM | Activity [3]: 1.24 mM | Imax [4]: 43.6% | inhibition [4]: Dose-dependent effect | IC30 [4]: 30.8 µM | Activity [5]: > 75 µM

C[C@@H]1O[C@@H](OC[C@H]2O[C@@H](Oc3c(-c4ccc(O)c(O)c4)oc4cc(O)cc(O)c4c3=O)[C@H](O)[C@@H](O)[C@@H]2O)[C@H](O)[C@H](O)[C@H]1O [RUTIN]
Activity [1]: 0.306 V | Imax [2]: 28.2% | IC30 [2]: > 200 µM | Activity [3]: 1.35 mM | Imax [4]: 25.2% | inhibition [4]: Dose-dependent effect | IC30 [4]: > 250 µM | Activity [5]: > 250 µM
